Reference: US10030103B2, “Stable helical ionic polypeptides” (The Board of Trustees of the University of Illinois, priority 2010, dated 2018)

Assays:
DHSα E. coli = assay: Inhibition of bacterial growth in Luria broth (OD650); format: cell-based; conditions: up to 100 μg/mL, seven hours, 37° C.
Method: Luria broth (1×) was prepared containing known concentrations of the three polymers between 0 μg/mL and 100 μg/mL and dispensed (200 μL aliquots) in triplicate into the wells of a clear polystyrene 96-well plate. Separate wells containing the antibiotic kanamycin at 50 μg/mL were also prepared as a control. The wells were then inoculated with DHSα E. coli and left to grow at 37° C. with agitation. After seven hours, the plate was removed and the absorbance of 650 nm light was measured for each well (OD650). In general, as bacterial growth was inhibited, the resulting OD650 decreased. The average OD650 was then plotted for each sample (FIG. 50).

[1] = Circular dichroism (CD) analysis of polypeptide conformation in aqueous solution; format: physicochemical
Method: CD measurements were carried out on a JASCO J-700 CD spectrometer in a quartz disc with a light path length of 1 cm at 0.01-0.1 mg/mL in DI water at room temperature or under conditions otherwise indicated.
The CD study was performed on a JASCO J-700 or on a J-720 CD spectrometer. Polymer samples were prepared at concentrations of 0.01-0.1 mg/mL at pH 3 unless otherwise specified. The solution was placed in a quartz cell with light path of 0.2 cm. The mean residue molar ellipticity of each polymer was calculated based on the measured apparent ellipticity, the molar concentration of polymer and the m.w. of the repeating unit. The CD experiments were carried out at room temperature unless otherwise specified. For temperature-dependency study, the temperature of the sample chamber which hosts the quartz cell was controlled by a water bath (from 4° C. to 70° C.).
The samples were equilibrated at corresponding temperature for at least 10 min before the CD measurements. For the sample preparations, the polymers were dissolved in DI water or in a solution containing NaCl, urea or methanesulfonic acid (MSA). For the pH-dependency study, the pH of the polymer solution was tuned by the addition of a concentrated HCl or NaOH solution.
The CD study was performed on a JASCO J-700 and J-720 CD spectrometer. Polymer samples were prepared at a concentration of 0.05 mg/mL in general unless otherwise specified. The solution was placed in a quartz disc with light path of 0.5 cm. Mean residue molar ellipticity was calculated based on the ellipticity obtained, concentration of polymer and the molar weight of the repeating unit.
The CD study was performed on a JASCO J-700 and J-720 CD spectrometer. The polymer samples were prepared at concentrations of 0.01-0.1 mg/mL in general unless otherwise specified. The solution was placed in a quartz cell with a path length of 0.5 cm. […] For the helix-temperature dependency study, the temperature of the sample chamber where the quartz cell was placed was controlled by a water bath (from 4° C. to 70° C.). […]

COS-7 cells = assay: In vitro transfection of COS-7 cells with polymer/DNA complexes (pCMV-Luc, luciferase expression); format: cell-based; conditions: listed as PVBLG40-1
Method: DNA/polymer complexes were prepared at room temperature by dissolving DNA (0.35 μg) in 150 mM NaCl, 20 mM HEPES (175 μL). An equal volume of 25-kDa branched PEI, lipofectamine 2000 or PVBLGn-X in 150 mM NaCl, 20 mM HEPES was added to achieve the desired weight ratio. The final complexes were incubated at room temperature for 15 min before further use. […] The transfection medium was replaced with fresh serum-supplemented growth medium 4 h post-transfection.
Luciferase expression was quantified 24 h post-transfection using the Promega Bright-Glo luciferase assay system (Promega, Madison, Wis.). Luciferase activity was measured in relative light units (RLU) using a PerkinElmer plate reader with luminescence capabilities (Waltham, Mass.). Results were normalized to total cell protein using the Pierce BCA protein assay kit (Rockford, Ill.). Transfections were performed in triplicate.

poly(γ-(4-(1-hexanol-6-aminomethyl))benzyl-L-glutamate) [PVBLG-1]
antimicrobial properties (DHSα E. coli): Neither PVBLGn-1 nor PVBLGn-8 displayed antimicrobial properties

Poly(γ-(4-aminoethylthiopropoxyl)-benzyl-L-glutamate) [(PAOBLG-AET)10]
pH dependence of −[θ]222 / helical conformation ([1]; pH range as stated in the value): remained unchanged when the solution's pH was increased from 1 to 8

poly-L-lysine [(PLL)60]
Helical content ([1]; Table 9-2, (−[θ]222 + 3000)/39,000): 0%

poly(γ-(4-(1-hexanol-6-aminomethyl))benzyl-L-glutamate) [(PVBLG-1)40]
transfection efficiency (COS-7 cells): on par with 25-kDa branched polyethylenimine (PEI)

poly(L-lysine) [PLL75]
conformation by CD ([1]; aqueous solution, pH 1): completely random coil conformation
